Consider 1 compound from patent publication US20260184714A1, “SMALL MOLECULE MODULATORS OF PAR2 AND USES THEREOF” (PARMEDICS, INC., priority 2022, published 2026).

Read-outs that look alike come from different tables or passages of the source.

Data set [1] deals with T1, protease-activated receptor-2 (PAR2) (Homo sapiens, UniProt P55085).
T1 construct: a human bronchial epithelial cell line that naturally expressed PAR2; endogenous in cells; host or cells: 16HBE14o- human bronchial epithelial cells
T1 sequence (P55085 26-397): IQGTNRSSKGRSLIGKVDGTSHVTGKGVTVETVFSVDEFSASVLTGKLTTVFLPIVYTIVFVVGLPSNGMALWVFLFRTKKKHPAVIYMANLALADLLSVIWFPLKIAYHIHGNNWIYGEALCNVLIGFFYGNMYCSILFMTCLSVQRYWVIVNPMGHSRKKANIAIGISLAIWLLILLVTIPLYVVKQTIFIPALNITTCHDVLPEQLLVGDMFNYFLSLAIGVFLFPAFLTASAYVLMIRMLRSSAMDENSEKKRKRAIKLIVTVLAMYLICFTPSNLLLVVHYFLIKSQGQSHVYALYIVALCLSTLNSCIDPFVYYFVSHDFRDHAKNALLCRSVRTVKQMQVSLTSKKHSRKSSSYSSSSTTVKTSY
Description: Digital imaging microscopy of intracellular Ca2+ changes (Gq/Ca2+ signaling). As to conditions: 16HBE14o- cells; [Ca2+]i by digital imaging microscopy. The data set is classed as cell-based. The method, then:
(§1) Compound I-1 (labelled as “C I-1” in FIGS. 1A-1D) was evaluated for its ability to antagonize protease-activated receptor-2 (PAR2) in several cellular assays using a human bronchial epithelial cell line that naturally expressed PAR2 (16HBE14o− cells; see FIG. 1A-1D).
(§2) It is known that two primary signaling outcomes of PAR2 activation are the initiation of Gq/Ca^2+ and β-arrestin/MAPK signaling. To determine whether the observed in vitro physiologic antagonism represented partial antagonism or intracellular signaling dependent antagonism, digital imaging microscopy was used to assay intracellular Ca^2+ changes ([Ca^2+ ]i; […]) as a measure of Gq/Ca^2+ signaling and an In Cell Western approach for measuring phosphorylation of extracellular regulated kinase ½ (ICW of pERK ½; see FIG. 1D) as an assay for β-arrestin/MAPK signaling. […] It is concluded that Compound I-1 is a β-arrestin/MAPK biased PAR2 antagonist.

Data set [2] concerns the target T1, protease-activated receptor-2 (PAR2). The experiment in a line: In Cell Western of pERK 1/2 (β-arrestin/MAPK signaling). To be noted: 16HBE14o- cells; ICW of pERK 1/2. In kind it is cell-based. How it is done: as §1, §2
For data set [3] the target is unchanged. The experiment in a line: xCELLigence real time cellular analysis (RTCA) of PAR2 antagonism. The data set is classed as cell-based. To be noted: 16HBE14o- cells; 5 min pre-incubation with 300 nM-10 μM compound, then 300 nM 2AT or 30 nM trypsin; high concentrations. How it is done: as §1
In the first assay to detect an in vitro physiological response, the xCELLigence real time cellular analysis (RTCA) was used.
Following overnight growth, varying concentrations of Compound I-1 was added to individual wells (in quadruplicate) in final concentrations of 300 nM, 1 μM, 3 μM and 10 μM. […] The upward deflection and recovery of the Cell Index shown in response to control 300 nM 2AT (FIG. 1A) or 30 nM (FIG. 1B) represents a typical EC50 response.

The test system of data set [4] is stress-induced migraine-like pain. Description: Stress-induced migraine model, facial withdrawal response after SNP. In kind it is in vivo, mouse. As to conditions: mice, restraint stress for 3 days, 14-day recovery, then SNP. The method, then:
Migraine headaches are characterized by sensitivity of pain-sensing neurons in the dura mater to innocuous stimuli, e.g., the nitric oxide donor, sodium nitroprusside (SNP). Compound I-1 was evaluated in vivo using a mouse migraine model to assess whether it can be used to treat stress-induced migraine-like pain. FIG. 2 summarizes the results for this in vivo study.
Mice were subjected to restraint stress for 3 days (□ and ⋄ data points in FIG. 2) or left unrestrained (∘ and Δ data points in FIG. 2), resulting in a significant facial withdrawal response up to 3 days post-stress.

The test system of data set [5] is airway hyperresponsiveness induced by Alternaria alternata. The experiment in a line: Alternaria alternata-induced asthma model, total airway resistance to methacholine (FLEXIVENT). In kind it is in vivo, mouse. As to conditions: mice, Alternaria alternata intranasally three times over 8 days, with Compound I-1. The method, then: Alternaria alternata is a fungal allergen that activates PAR2 in the airways to promote inflammation and bronchoconstriction. Compound I-1 was evaluated in vivo to assess whether it can be used to treat airway hyperresponsiveness induced by Alternaria alternata. FIG. 3 summarizes the results for this in vivo study.
Alternaria alternata or saline (A data points in FIG. 3) were administered intranasally in a mouse asthma model three times over an 8 day period, in the presence (Q data points in FIG. 3) or absence (o data points in FIG. 3) of Compound I-1. Total airway resistance in response to increasing amounts of methacholine was monitored using the FLEXIVENT® (Scireq, Quebec, Canada) system.

Data set [6] can be described thus: In vivo pharmacokinetics (plasma concentration by LC-MS/MS, non-compartmental analysis). As to conditions: mouse; for concentration at 24 h: read-out: Clast (24 h); for Cmax: read-out: Co/Cmax. How it is done:
Compound I-1 was evaluated for its plasma stability and oral bioavailability. Mice were fasted overnight before dosing, with water provided ad libitum throughout the study. Three animals are dosed via gavage needle for oral administration at 10 mg/kg (10 mL/kg), via tail vein injection for intravenous administration at […], and via injection in the lower right quadrant of the abdomen for intraperitoneal injections at 10 mg/kg (10 mL/kg). Blood samples (25-30 μL per sample) were taken via saphenous or submandibular vein at 5, 15, 30 min, and 1, 2, 4, 6, 8, 24 h post dose and drug concentration determined by LC-MS/MS. Plasma concentrations were then graphed vs time and pharmacokinetic parameters (terminal half life, t1/2; initial plasma concentration, Co; area under the curve (AUC); volume of distribution at steady-state. Vss; total plasma clearance CLp; mean residence time, MRT; maximum plasma concentration Cmax; time to reach Cmax, tmax; and bioavailability, F) were determined using non-compartmental analysis.

As to `CC(C)C[C@@H]1C(=O)N2C(CN(CC3CCNCC3)C(=O)[C@@H]2CC(C)C)N1C(=O)c1ccco1` (stereo partly drawn) [Compound I-1, 4-(((2R,5S)-1-(furan-2-carbonyl)-2,5-diisobutyl-3,6-dioxohexahydroimidazolo [1,2-a]pyrazin-7(1H)-yl)methyl)piperidin-1-ium chloride], the “Antagonism at the Gq/Ca2+ signaling pathway” value in data set [1] is recorded as “not observed”. For the same compound, in data set [2], the “Antagonism of the β-arrestin/MAPK-signaling pathway” value was “significant antagonism”. Moreover, the “Cell Index response to PAR2 activation (antagonism)” value in data set [3] was “reduced the response”. In addition, in data set [4], the “Facial withdrawal response after SNP” value is “eliminated”. The “Total airway resistance in response to increasing methacholine” value in data set [5] is “has promise as a therapeutic for reducing allergen-induced asthma attacks”. The compound also yielded a F in data set [6] (IP, 10 mg/kG) of 89.8%. In data set [6] (Oral, 10 mg/kG), this compound yielded an F of 84.7%. In data set [6] (plasma, IP, 10 mg/kG), the AUC (usually the area under the concentration-time curve, a measure of exposure) is 2670 ng·h/mL; the Tmax (commonly the time from dosing to the highest level) was 0.25 h; the half-life (commonly how long it takes for the measured level to halve) is 7.97 h; the concentration at 24 h worked out at 12.9 ng/mL. Moreover, the Cmax in data set [6] (plasma, IP, 10 mg/kG) came out at 689 ng/mL. Besides, in data set [6] (plasma, IV, 2 mg/kG), the AUC came out at 595 ng·h/mL, the half-life was 7.9 h, the concentration at 24 h was determined as 1.15 ng/mL and the Cmax worked out at 1330 ng/mL. The clearance in data set [6] (plasma, IV, 2 mg/kG, read-out: CLp) was determined as 56.6 mL/min/kg. For the same compound, the Vd in data set [6] (plasma, IV, 2 mg/kG, read-out: Vss) stood at 8.29 L/kg. In data set [6] (plasma, Oral, 10 mg/kG), the AUC stood at 2520 ng·h/mL, the Tmax was 0.5 h, the half-life was 7.45 h and the concentration at 24 h is 11.4 ng/mL. Further, the Cmax in data set [6] (plasma, Oral, 10 mg/kG) amounted to 632 ng/mL.
